Targets include ACVR1 (Homo sapiens, UniProt Q04771); CAMK1 (Homo sapiens, UniProt Q14012); FLT1 (Homo sapiens, UniProt P17948); KIT (Homo sapiens, UniProt P10721); TTK (Homo sapiens, UniProt P33981); CDKL1 (Homo sapiens, UniProt Q00532); NEK9 (Homo sapiens, UniProt Q8TD19); PIK3CG (Homo sapiens, UniProt P48736); EGFR(S752-I759del) (Homo sapiens, UniProt P00533, DEL752-759); ACVR2A (Homo sapiens, UniProt P27037); KIT(L576P) (Homo sapiens, UniProt P10721, L576P); MYO3A (Homo sapiens, UniProt Q8NEV4); ACVRL1 (Homo sapiens, UniProt P37023).

What all share (assay): biochemical
Set-up in all cases: DiscoverX kinase panel, active-site competition binding (KINOMEscan type), percent of control at one concentration
Holding throughout (conditions): competition binding, percent of control

The next experiment deals with T1, CDK4-cyclinD3 (Homo sapiens, UniProt P11802).
T1 construct: cyclinD3

A further experiment has as its target T2, PIK4CB (Homo sapiens, UniProt Q9UBF8).
T2 construct: gene PI4KB

Experiment [1] addresses T3, ABL1(H396P)-phosphorylated (Homo sapiens, UniProt P00519, H396P).
T3 construct: phosphorylated

The target in experiment [2] is T4, ABL1(Y253F)-phosphorylated (Homo sapiens, UniProt P00519, Y253F).
T4 construct: phosphorylated

Another experiment concerns the target T5, TRKA (Homo sapiens, UniProt P04629).
T5 construct: gene NTRK1

A further experiment addresses T6, BIKE (Homo sapiens, UniProt Q9NSY1).
T6 construct: gene BMP2K

A further experiment has as its target T7, ASK1 (Homo sapiens, UniProt Q99683).
T7 construct: gene MAP3K5

Another experiment concerns the target T8, LKB1 (Homo sapiens, UniProt Q15831).
T8 construct: gene STK11

CDKL1, sequence (Q00532 whole entry): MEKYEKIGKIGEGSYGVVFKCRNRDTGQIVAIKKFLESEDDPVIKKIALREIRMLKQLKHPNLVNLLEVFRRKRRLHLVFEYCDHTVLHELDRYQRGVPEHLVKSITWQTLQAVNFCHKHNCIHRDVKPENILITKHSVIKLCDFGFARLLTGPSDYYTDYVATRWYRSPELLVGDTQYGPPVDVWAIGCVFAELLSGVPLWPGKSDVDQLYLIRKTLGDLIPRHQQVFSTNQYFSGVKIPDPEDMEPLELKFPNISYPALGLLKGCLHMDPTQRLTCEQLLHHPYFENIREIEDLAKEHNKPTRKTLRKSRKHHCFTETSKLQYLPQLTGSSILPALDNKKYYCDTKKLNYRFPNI
T6 sequence (Q9NSY1 whole entry): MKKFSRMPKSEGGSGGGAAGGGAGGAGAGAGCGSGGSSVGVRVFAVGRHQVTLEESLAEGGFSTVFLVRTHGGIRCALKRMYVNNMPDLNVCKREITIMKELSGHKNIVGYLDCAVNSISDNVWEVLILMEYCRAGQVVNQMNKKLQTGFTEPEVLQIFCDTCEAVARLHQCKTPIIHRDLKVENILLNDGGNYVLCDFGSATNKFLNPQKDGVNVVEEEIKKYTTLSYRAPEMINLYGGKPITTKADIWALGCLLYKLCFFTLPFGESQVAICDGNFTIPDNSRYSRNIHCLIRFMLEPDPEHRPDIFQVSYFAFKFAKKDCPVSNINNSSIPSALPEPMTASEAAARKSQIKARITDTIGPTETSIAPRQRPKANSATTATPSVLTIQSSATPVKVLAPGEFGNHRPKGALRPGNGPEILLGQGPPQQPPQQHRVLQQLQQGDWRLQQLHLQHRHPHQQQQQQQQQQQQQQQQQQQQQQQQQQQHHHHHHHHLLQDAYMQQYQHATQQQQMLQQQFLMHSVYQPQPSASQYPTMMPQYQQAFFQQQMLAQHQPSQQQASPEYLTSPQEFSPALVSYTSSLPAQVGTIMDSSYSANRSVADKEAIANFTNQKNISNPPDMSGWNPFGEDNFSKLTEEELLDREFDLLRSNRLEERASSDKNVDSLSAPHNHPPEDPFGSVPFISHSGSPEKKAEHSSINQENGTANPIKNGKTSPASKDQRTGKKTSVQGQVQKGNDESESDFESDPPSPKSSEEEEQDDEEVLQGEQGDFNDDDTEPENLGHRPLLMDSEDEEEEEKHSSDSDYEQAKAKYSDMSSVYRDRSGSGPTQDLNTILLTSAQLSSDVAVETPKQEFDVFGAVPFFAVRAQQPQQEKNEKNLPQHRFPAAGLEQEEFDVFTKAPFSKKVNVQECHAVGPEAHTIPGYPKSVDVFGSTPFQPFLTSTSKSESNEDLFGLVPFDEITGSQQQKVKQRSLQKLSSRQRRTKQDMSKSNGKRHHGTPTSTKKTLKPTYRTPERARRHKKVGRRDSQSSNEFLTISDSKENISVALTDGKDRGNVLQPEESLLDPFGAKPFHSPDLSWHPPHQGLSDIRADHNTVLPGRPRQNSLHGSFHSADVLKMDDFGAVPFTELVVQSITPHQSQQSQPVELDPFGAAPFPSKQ
ACVRL1, sequence (P37023 whole entry): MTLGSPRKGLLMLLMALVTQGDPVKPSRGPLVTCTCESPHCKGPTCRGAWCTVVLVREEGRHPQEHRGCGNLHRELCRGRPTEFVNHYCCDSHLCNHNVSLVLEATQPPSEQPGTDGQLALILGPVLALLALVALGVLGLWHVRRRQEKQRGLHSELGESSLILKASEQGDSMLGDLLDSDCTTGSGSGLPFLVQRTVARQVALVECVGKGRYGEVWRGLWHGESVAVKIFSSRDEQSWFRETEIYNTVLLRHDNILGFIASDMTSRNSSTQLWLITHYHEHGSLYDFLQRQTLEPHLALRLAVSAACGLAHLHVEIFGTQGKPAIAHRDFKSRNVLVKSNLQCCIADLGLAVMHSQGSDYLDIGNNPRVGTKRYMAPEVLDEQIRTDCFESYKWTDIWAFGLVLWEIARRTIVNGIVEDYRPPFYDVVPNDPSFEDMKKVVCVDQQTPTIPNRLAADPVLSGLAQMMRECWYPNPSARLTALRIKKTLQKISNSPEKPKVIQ
T2 sequence (Q9UBF8 whole entry): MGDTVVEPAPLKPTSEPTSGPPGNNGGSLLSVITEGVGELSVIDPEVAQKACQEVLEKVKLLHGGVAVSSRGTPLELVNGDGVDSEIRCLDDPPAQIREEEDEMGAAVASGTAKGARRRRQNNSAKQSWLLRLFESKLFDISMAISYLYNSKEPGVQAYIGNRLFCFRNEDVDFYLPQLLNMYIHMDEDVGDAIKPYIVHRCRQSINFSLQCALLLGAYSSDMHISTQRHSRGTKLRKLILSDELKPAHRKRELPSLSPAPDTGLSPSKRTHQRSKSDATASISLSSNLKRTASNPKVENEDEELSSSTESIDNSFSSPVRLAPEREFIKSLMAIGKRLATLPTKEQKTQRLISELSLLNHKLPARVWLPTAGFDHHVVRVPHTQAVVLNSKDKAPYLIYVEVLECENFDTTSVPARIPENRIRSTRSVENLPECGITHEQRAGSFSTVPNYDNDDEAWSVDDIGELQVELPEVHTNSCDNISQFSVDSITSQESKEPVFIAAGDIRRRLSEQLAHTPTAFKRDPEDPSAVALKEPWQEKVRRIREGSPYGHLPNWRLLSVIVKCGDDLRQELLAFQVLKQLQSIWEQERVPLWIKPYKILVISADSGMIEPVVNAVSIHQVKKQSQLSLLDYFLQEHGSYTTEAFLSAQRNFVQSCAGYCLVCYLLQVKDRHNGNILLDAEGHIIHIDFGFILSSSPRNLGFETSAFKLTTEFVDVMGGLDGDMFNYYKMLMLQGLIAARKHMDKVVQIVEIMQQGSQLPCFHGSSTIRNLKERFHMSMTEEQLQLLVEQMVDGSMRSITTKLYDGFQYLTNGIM
TTK, sequence (P33981 whole entry): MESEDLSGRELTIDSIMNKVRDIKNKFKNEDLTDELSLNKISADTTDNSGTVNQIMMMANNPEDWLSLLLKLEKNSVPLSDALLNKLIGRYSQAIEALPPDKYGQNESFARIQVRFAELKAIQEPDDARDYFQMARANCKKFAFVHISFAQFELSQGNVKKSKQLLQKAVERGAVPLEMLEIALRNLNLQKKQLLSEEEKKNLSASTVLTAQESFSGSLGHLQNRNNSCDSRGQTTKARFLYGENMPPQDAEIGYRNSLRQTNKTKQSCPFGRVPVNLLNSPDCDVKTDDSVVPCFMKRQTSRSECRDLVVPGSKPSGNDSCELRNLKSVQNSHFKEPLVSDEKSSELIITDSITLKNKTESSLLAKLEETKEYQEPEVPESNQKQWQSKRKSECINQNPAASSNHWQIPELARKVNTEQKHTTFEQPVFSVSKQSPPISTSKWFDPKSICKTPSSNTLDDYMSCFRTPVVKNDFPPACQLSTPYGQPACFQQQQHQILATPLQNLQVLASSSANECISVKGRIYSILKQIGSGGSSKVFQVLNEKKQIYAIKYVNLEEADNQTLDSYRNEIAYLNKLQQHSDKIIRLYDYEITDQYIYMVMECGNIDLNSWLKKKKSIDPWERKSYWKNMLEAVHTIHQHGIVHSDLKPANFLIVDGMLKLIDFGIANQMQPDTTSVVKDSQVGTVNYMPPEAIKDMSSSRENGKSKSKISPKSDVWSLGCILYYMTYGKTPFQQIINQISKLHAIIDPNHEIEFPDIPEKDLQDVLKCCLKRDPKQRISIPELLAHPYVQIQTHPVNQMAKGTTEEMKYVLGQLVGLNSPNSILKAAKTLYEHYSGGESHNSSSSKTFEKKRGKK
ACVR2A, sequence (P27037 whole entry): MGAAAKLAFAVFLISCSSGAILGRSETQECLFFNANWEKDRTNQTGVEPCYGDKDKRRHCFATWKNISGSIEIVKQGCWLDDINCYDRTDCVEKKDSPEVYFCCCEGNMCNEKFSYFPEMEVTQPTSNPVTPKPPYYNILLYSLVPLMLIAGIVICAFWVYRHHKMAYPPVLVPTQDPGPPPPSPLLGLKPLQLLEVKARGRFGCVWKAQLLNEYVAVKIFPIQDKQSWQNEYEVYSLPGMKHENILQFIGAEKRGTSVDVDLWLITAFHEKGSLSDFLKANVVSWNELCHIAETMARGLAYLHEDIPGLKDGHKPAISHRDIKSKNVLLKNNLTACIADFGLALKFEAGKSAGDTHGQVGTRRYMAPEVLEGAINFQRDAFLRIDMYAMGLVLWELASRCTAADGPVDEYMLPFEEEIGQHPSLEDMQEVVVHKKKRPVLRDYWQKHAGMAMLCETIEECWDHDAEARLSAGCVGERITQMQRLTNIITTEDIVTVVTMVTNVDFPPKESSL
CAMK1, sequence (Q14012 whole entry): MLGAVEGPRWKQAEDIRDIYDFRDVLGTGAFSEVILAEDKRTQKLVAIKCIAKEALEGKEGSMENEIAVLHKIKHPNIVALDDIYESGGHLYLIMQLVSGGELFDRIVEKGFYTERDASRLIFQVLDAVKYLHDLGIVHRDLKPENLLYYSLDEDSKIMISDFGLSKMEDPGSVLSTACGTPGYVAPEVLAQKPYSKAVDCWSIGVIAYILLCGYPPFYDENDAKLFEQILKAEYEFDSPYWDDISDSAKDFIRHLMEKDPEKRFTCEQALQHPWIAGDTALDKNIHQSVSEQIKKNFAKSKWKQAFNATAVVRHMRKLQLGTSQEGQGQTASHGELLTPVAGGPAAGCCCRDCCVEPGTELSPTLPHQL
T8 sequence (Q15831 whole entry): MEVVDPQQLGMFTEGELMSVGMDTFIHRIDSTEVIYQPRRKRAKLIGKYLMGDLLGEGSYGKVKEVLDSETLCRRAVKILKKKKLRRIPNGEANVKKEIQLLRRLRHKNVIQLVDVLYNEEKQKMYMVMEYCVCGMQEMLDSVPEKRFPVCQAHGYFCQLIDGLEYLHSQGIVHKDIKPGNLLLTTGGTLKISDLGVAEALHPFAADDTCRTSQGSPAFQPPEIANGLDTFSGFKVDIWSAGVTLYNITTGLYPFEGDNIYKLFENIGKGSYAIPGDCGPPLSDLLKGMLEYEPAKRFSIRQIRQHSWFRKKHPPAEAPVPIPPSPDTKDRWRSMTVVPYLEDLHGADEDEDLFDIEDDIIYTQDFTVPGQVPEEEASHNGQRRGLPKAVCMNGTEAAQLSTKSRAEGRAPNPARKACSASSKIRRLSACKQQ

Turning to `COc1cc2c(cn1)N(C)C(=O)[C@@H](NC(=O)c1nc3n(n1)[C@H](c1ccccc1)CC3)CC2` [GNE684, (S)-N-((S)-7-methoxy-1-methyl-2-oxo-2,3,4,5-tetrahydro-1H-pyrido[3,4-b]azepin-3-yl)-5-phenyl-6,7-dihydro-5H-pyrrolo[1,2-b][1,2,4]triazole-2-carboxamide], the remaining binding at 10 µM on ACVR1 came to 100%; on CDK4-cyclinD3, 97%; on CAMK1, 91%; at FLT1, 100%; at KIT, 95%; at PIK4CB, 98%. Also, the remaining binding at 10 µM was 92% in [1]; 100% at TTK; 100% in [2]; 74% on CDKL1; 99% on NEK9; 87% on TRKA. In addition, the remaining binding at 10 µM on PIK3CG was 89%; at EGFR(S752-I759del) it was 97%; on ACVR2A, 82%; at BIKE it was 100%; at KIT(L576P), 100%; on ASK1 it was 97%. Besides, the remaining binding at 10 µM at LKB1 was 100%; on MYO3A, 95%; at ACVRL1 it was 87%.
